In patent US20220304916A1, “MODIFIED BLACK SOLDIER FLY LARVAE OIL WITH MODIFIED LAURIC ACID FOR TREATMENT AGAINST BIOFILM FORMATION AND MICROORGANISM GROWTH” (BIO-BEE SDE ELIYAHU LTD, priority 2019, published 2022):

Experiments:
Assay type in all cases: cell-based
Lactobacillus (L) [1] = experiment: Viability on agar plates (MBC)
Description: (§1) MBSFL oil (converted, 225, BioBee Sde Eliyahu Ltd, lot 0095-0098.181210-181227) was compared to BSFL oil (before conversion, 215, BioBee Sde Eliyahu Ltd, lot 0030.111217), lauric acid 98% (Sigma-Aldrich, denoted LA) and chlorhexidine acetate (Steinberg, denoted CHX), were analyzed as antimicrobial and anti-biofilm-formation agents in vitro, with respect to Pseudomonas aeruginosa (Gram negative, denoted PA01), Staphylococcus aureus (ATCC, American Type Culture Collection) (Gram positive, denoted SA), Streptococcus mutans (ATCC) (Gram positive, denoted SM), Lactobacillus (ATCC) (Gram positive, denoted L), Candida albicans (ATCC) (yeast, denoted CA) and Candida glabrata (ATCC) (yeast, denoted CG).
(§2) Microbial stocks of the Biofilm Research Laboratory were grown from frozen stock: SM at overnight 37° C. in BHI (brain heart infusion) broth medium in an atmosphere of 5% CO2; L at 37° C. in MRS (de Man, Rogosa and Sharpe) broth medium in an atmosphere of 5% CO2; PAO1 and SA at 37° C. in TSB (Trypticase soy broth) medium; CA and CG at 37° C. in RPMI (Roswell Park Memorial Institute) medium.
(§3) BSFL oil and MBSFL oil were prepared in DDW by heating at 100° C. LA was prepared at 50% Ethanol/50% DDW (doubly distillated water) and heated constantly to prevent solidifying in the tube. Maximum concentration of tested agents was the same (2.7% of lauric acid content). CHX was prepared in DDW
(§4) To examine the effects of MBSFL oil on microorganism's viability, equal amounts (5 μl) of bacterial suspension exposed to each tested concentration of agent was plated on agar plates. Plates were incubated overnight at 37° C. Colony growth was recorded as non-affected by agent's viable bacteria. Minimal Bactericidal Concentration (MBC) was recorded as no colony growth. Minimal Fungicidal Concentration (MFC) was recorded as no fungal growth.

[2] = test system: Pseudomonas aeruginosa (PAO1); experiment: Viability on agar plates (MBC)
Description: as §1, §2, §3, §4

[3] = test system: Streptococcus mutans (SM); experiment: Viability on agar plates (MBC)
Description: as §1, §2, §3, §4

[4] = test system: Staphylococcus aureus (SA); experiment: Viability on agar plates (MBC)
Description: as §1, §2, §3, §4

Candida glabrata (CG) [5] = experiment: Biofilm formation, crystal violet staining
Description: as §1, §2, §3
(§5) To examine the effects of MBSFL oil on biofilm formation by the microorganisms, assays for all of the tested agents were performed as described above except of growth medium used which was MRS/BHI supplemented with 1% sucrose and TSB/RPMI supplemented with 1% glucose. After incubation for 24 h, spent media and free-floating bacteria/fungi were removed by gentle aspiration and the wells were washed twice with phosphate-buffered saline (PBS, pH 7.4). The biofilm was then quantified by crystal violet staining. Briefly, 0.02% crystal violet was added into wells for 45 min, which were then washed twice with DDW to remove unbound dye. After adding 200 μl of 30% acetic acid into each well, the plate was shaken for 10 min to release the dye and the biofilm was quantified by measuring the absorbance at 595 nm using a Genius plate reader Spectrophotometer (Tecan). Assay was performed in triplicates.

Candida albicans (CA) [6] = experiment: Biofilm formation, crystal violet staining; conditions: 24 h
Description: as §1, §2, §3, §5

[7] = test system: Pseudomonas aeruginosa (PAO1); experiment: Biofilm formation, crystal violet staining
Description: as §1, §2, §3, §5

[8] = test system: Streptococcus mutans (SM); experiment: Biofilm formation, crystal violet staining; conditions: 24 h
Description: as §1, §2, §3, §5

[9] = test system: Staphylococcus aureus (SA); experiment: Biofilm formation, crystal violet staining; conditions: 24 h
Description: as §1, §2, §3, §5

Candida glabrata (CG) [10] = experiment: Viability on agar plates (MFC)
Description: as §1, §2, §3, §4

Candida albicans (CA) [11] = experiment: Viability on agar plates (MFC)
Description: as §1, §2, §3, §4

Candida glabrata (CG) [12] = experiment: Planktonic growth, OD 595 nm after 24 h
Description: as §1, §2, §3
(§6) To examine the effects of MBSFL oil on microorganism's growth (planktonic conditions), serial 1:2 dilutions of each tested agent in appropriate medium (BSFL, MBSFL and LA from 2.7 to 0.04%; CHX from 20 μg/ml to 0.3 μg/ml) were prepared in a polystyrene flat-bottomed 96-well microplate. Wells with no compounds and those with bacteria served as positive controls. Wells with no bacteria and with compound served as blanks. An equal volume (100 μl) of the each tested bacterial and fungal suspension at optical density (OD)595=0.02 and 0.05, respectively, was added to each well. After a 24 h incubation, growth was monitored by recording the OD at 595 nm using a Genius plate reader Spectrophotometer (Tecan). The assay was performed in triplicates.

Lactobacillus (L) [13] = experiment: Planktonic growth, OD 595 nm after 24 h
Description: as §1, §2, §3, §6

Candida albicans (CA) [14] = experiment: Planktonic growth, OD 595 nm after 24 h
Description: as §1, §2, §3, §6

[15] = test system: Streptococcus mutans (SM); experiment: Planktonic growth, OD 595 nm after 24 h
Description: as §1, §2, §3, §6

[16] = test system: Staphylococcus aureus (SA); experiment: Planktonic growth, OD 595 nm after 24 h
Description: as §1, §2, §3, §6

[17] = test system: Pseudomonas aeruginosa (PAO1); experiment: Planktonic growth, OD 595 nm after 24 h
Description: as §1, §2, §3, §6

CCCCCCCCCCCC(=O)O [LA, lauric acid]
MBC (Lactobacillus (L) [1]): 0.67% | Minimal Bactericidal Concentration (MBC) [2]: exerted MBC/MFC for all tested microbes, except PAO1 | MBC [3]: 0.33% | MBC [4]: 0.67% | effect on biofilm formation (in words) (Candida glabrata (CG) [5]): effective against biofilm formation of CG but with less impact | dose at which biofilm formation was almost totally inhibited (Candida albicans (CA) [6]): 0.67% | effect on biofilm formation (in words) ([7]; all concentrations tested): dose-dependently increased biomass | dose of total inhibition of biofilm formation [8]: 0.16% | dose at which biofilm formation was totally or almost totally inhibited [9]: 0.67% | MFC (Candida glabrata (CG) [10]): 2.7% | Minimal Fungicidal Concentration (MFC) (Candida albicans (CA) [11]): 2.7% | MIC (Candida glabrata (CG) [12]): 2.7% | MIC (Lactobacillus (L) [13]): 0.33% | MIC (Candida albicans (CA) [14]): 1.35% | MIC [15]: 0.33% | reduction of SA growth ([16]; lowest tested dose of 0.04%): 90%

CC(=O)O.CC(=O)O.NC(=N\CCCCCC/N=C(N)/N=C(\N)Nc1ccc(Cl)cc1)/N=C(\N)Nc1ccc(Cl)cc1 [CHX, chlorhexidine acetate]
MBC (Lactobacillus (L) [1]): 2.5 µg/mL | MBC [2]: 20 µg/mL | MBC [3]: 0.625 µg/mL | MBC [4]: 10 µg/mL | dose inhibiting biofilm formation (Candida glabrata (CG) [5]; 24 h): 2.5 µg/mL | dose inhibiting biofilm formation (Candida albicans (CA) [6]): 5 µg/mL | dose of total inhibition of biofilm formation ([7]; PAO1 biofilm, 24 h): 10 µg/mL | dose inhibiting biofilm formation [8]: 0.625 µg/mL | dose inhibiting biofilm formation [9]: 2.5 µg/mL | MFC (Candida glabrata (CG) [10]): 2.5 µg/mL | MFC (Candida albicans (CA) [11]): 5 µg/mL | dose inhibiting growth of CG (Candida glabrata (CG) [12]): 2.5 µg/mL | MIC (Lactobacillus (L) [13]): 2.5 µg/mL | dose inhibiting growth of CA (Candida albicans (CA) [14]): 5 µg/mL | dose of total inhibition of PAO1 growth [17]: 10 µg/mL | dose inhibiting growth of SM [15]: 0.625 µg/mL | dose inhibiting growth of SA ([16]; planktonic, 24 h): 2.5 µg/mL
